Target: T1, human PF4 (Homo sapiens, UniProt P02776)
T1 construct: PF4 is a 70 amino acid, lysine-rich 7.8 kDa platelet-specific protein; made in house; host or cells: Escherichia coli BL21DE3 pLysS (pT7-7) and/or Drosophila S2 cells
T1 sequence (P02776 32-101): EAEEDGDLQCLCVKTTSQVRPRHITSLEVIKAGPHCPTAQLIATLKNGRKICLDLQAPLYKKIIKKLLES
Test: Inhibition of PF4 tetramer formation (BS3 cross-linking, SDS-PAGE)
Format: biochemical
Conditions: for inhibition at 5 µM: 5 μM inhibitor; for inhibition at 10 µM: 10 μM inhibitor (column A); for IC50: read-out: IC50 of PF4 tetramer formation inhibition; for inhibition at 1 µM: 1 μM inhibitor; for inhibition at 3 µM: 3 μM inhibitor (column A)
In short: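 Recombinant human wild-type PF4 (E. coli-expressed, heparin-purified), 10 μg/ml in PBS, incubated with compound 15 min at 37° C or 60 min at room temperature, then cross-linked with 0.2 mM BS3 for 30 min at room temperature. Reducing 12% SDS-PAGE; bands quantified as % tetramer, trimer, dimer, monomer versus compound-free control.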

[1] = read-out: % inhibition of PF4 tetramer formation at single concentration of inhibitor

| inhibition at 5 µM [1] [%] | inhibition at 10 µM [1] [%] | IC50 [nM] | inhibition at 1 µM [1] [%] | inhibition at 3 µM [1] [%] | Structure (SMILES) | also measured |
| --- | --- | --- | --- | --- | --- | --- |
| 90 | 97 | 1100 | – | – | CC(=O)NCC(=O)C1C(=O)c2ccc(S(=O)(=O)c3ccc4c(c3)C(=O)C(C(=O)CNC(C)=O)C4=O)cc2C1=O (stereo not shown) [Example 175, N-[2-(5-{[2-(2-acetamidoacetyl)-1,3-dioxo-2,3-dihydro-1H-inden-5-yl]sulfonyl}-1,3-dioxo-2,3-dihydro-1H-inden-2-yl)-2-oxoethyl]acetamide] | – |
| – | – | – | 27 | 52 | O=C(c1ccc2c(c1)C(=O)C(C(=O)CSc1ccncc1)C2=O)c1ccc2c(c1)C(=O)C(C(=O)CSc1ccncc1)C2=O (stereo not shown) [Example 289, 5-{1,3-dioxo-2-[2-(pyridin-4-ylsulfanyl)acetyl]-2,3-dihydro-1H-indene-5-carbonyl}-2-[2-(pyridin-4-ylsulfanyl)acetyl]-2,3-dihydro-1H-indene-1,3-dione] | – |
| 73 | 90 | – | – | – | O=C(Nc1cccc(Cl)c1)C1C(=O)c2ccc(S(=O)(=O)c3ccc4c(c3)C(=O)C(C(=O)Nc3cccc(Cl)c3)C4=O)cc2C1=O (stereo not shown) [Example 86, N-(3-chlorophenyl)-5-({2-[(3-chlorophenyl)carbamoyl]-1,3-dioxo-2,3-dihydro-1H-inden-5-yl}sulfonyl)-1,3-dioxo-2,3-dihydro-1H-indene-2-carboxamide] | – |
| – | – | 1970 | 45 | 88 | O=C(NC1CCCC1)C1C(=O)c2ccc(S(=O)(=O)c3ccc4c(c3)C(=O)C(C(=O)NC3CCCC3)C4=O)cc2C1=O (stereo not shown) [Example 294, N-cyclopentyl-5-{[2-(cyclopentylcarbamoyl)-1,3-dioxo-2,3-dihydro-1H-inden-5-yl]sulfonyl}-1,3-dioxo-2,3-dihydro-1H-indene-2-carboxamide] | – |
| 88 | 89 | 3100 | – | – | O=C(c1ccc2c(c1)C(=O)C(C(=O)Cn1cccn1)C2=O)c1ccc2c(c1)C(=O)C(C(=O)Cn1cccn1)C2=O (stereo not shown) [Example 126, 5-{1,3-dioxo-2-[2-(1H-pyrazol-1-yl)acetyl]-2,3-dihydro-1H-indene-5-carbonyl}-2-[2-(1H-pyrazol-1-yl)acetyl]-2,3-dihydro-1H-indene-1,3-dione] | – |
| – | – | 1400 | – | – | O=C(NCc1ccco1)C1C(=O)c2ccc(S(=O)(=O)c3ccc4c(c3)C(=O)C(C(=O)NCc3ccco3)C4=O)cc2C1=O (stereo not shown) [Example 104, N-[(furan-2-yl)methyl]-5-[(2-{[(furan-2-yl)methyl]carbamoyl}-1,3-dioxo-2,3-dihydro-1H-inden-5-yl)sulfonyl]-1,3-dioxo-2,3-dihydro-1H-indene-2-carboxamide] | – |
| – | – | – | 34 | 45 | O=C(c1ccc2c(c1)C(=O)C(C(=O)NCC1CCS(=O)(=O)C1)C2=O)c1ccc2c(c1)C(=O)C(C(=O)NCC1CCS(=O)(=O)C1)C2=O (stereo not shown) [Example 359, N-[(1,1-dioxo-1λ^6-thiolan-3-yl)methyl]-5-(2-{[(1,1-dioxo-1λ^6-thiolan-3-yl)methyl]carbamoyl}-1,3-dioxo-2,3-dihydro-1H-indene-5-carbonyl)-1,3-dioxo-2,3-dihydro-1H-indene-2-carboxamide] | – |
| 83 | 89 | 5110 | – | – | O=C(c1ccc2c(c1)C(=O)C(C(=O)NCCCc1ccccc1)C2=O)c1ccc2c(c1)C(=O)C(C(=O)NCCCc1ccccc1)C2=O (stereo not shown) [Example 24, 5,5′-carbonylbis(1,3-dioxo-indan-2-carboxylic acid (3-(phenyl)propyl)-amide)] | – |
| – | – | – | 31 | 67 | C[C@H](NC(=O)C1C(=O)c2ccc(Oc3ccc4c(c3)C(=O)C(C(=O)N[C@@H](C)C(=O)O)C4=O)cc2C1=O)C(=O)O (stereo partly drawn) [Example 313, (2S)-2-({5-[(2-{[(1S)-1-carboxyethyl]carbamoyl}-1,3-dioxo-2,3-dihydro-1H-inden-5-yl)oxy]-1,3-dioxo-2,3-dihydro-1H-inden-2-yl}formamido) propanoic acid] | – |
| 45 | 86 | 1540 | – | – | O=C(c1ccc2c(c1)C(=O)C(C(=O)NC1CCC1)C2=O)c1ccc2c(c1)C(=O)C(C(=O)NC1CCC1)C2=O (stereo not shown) [Example 68, 5,5′-carbonylbis(n-cyclobutyl-1,3-dioxo-2,3-dihydro-1h-indene-2-carboxamide)] | – |
| – | – | – | 24 | 28 | O=C(O)CC(=O)C1C(=O)c2ccc(S(=O)(=O)c3ccc4c(c3)C(=O)C(C(=O)CC(=O)O)C4=O)cc2C1=O (stereo not shown) [Example 404, 3-(5-{[2-(2-carboxyacetyl)-1,3-dioxo-2,3-dihydro-1H-inden-5-yl]sulfonyl}-1,3-dioxo-2,3-dihydro-1H-inden-2-yl)-3-oxopropanoic acid] | – |
| – | – | – | 35 | 78 | CC(C)[C@@H](N)C(=O)C1C(=O)c2ccc(C(=O)c3ccc4c(c3)C(=O)C(C(=O)[C@H](N)C(C)C)C4=O)cc2C1=O (stereo partly drawn) [Example 352, 2-[(2R)-2-amino-3-methylbutanoyl]-5-{2-[(2R)-2-amino-3-methylbutanoyl]-1,3-dioxo-2,3-dihydro-1H-indene-5-carbonyl}-2,3-dihydro-1H-indene-1,3-dione] | – |
| – | – | 1000 | – | – | O=C(c1ccc2c(c1)C(=O)C(C(=O)Nc1ccccc1)C2=O)c1ccc2c(c1)C(=O)C(C(=O)Nc1ccccc1)C2=O (stereo not shown) [Example 14, 5,5′-carbonylbis(1,3-dioxo-indan-2-carboxylic acid phenylamide)] | inhibition at 30 µM (30 μM inhibitor, read-out: % inhibition of PF4 tetramer formation at single concentration of inhibitor): 96% |
| – | – | 2300 | – | – | O=C(NCCc1ccc(F)cc1)C1C(=O)c2ccc(S(=O)(=O)c3ccc4c(c3)C(=O)C(C(=O)NCCc3ccc(F)cc3)C4=O)cc2C1=O (stereo not shown) [Example 83, N-[2-(4-fluorophenyl)ethyl]-5-[(2-{[2-(4-fluorophenyl)ethyl]carbamoyl}-1,3-dioxo-2,3-dihydro-1H-inden-5-yl)sulfonyl]-1,3-dioxo-2,3-dihydro-1H-indene-2-carboxamide] | – |

| Structure (SMILES) | inhibition at 5 µM [1] [%] | inhibition at 10 µM [1] [%] | IC50 [nM] | inhibition at 1 µM [1] [%] | inhibition at 3 µM [1] [%] | also measured |
| --- | --- | --- | --- | --- | --- | --- |
| CC(C)(C)OC(=O)NCCCC(=O)C1C(=O)c2ccc(Oc3ccc4c(c3)C(=O)C(C(=O)CCCNC(=O)OC(C)(C)C)C4=O)cc2C1=O (stereo not shown) [Example 385, tert-butyl N-[4-(5-{[2-(4-{[(tert-butoxy)carbonyl]amino}butanoyl)-1,3-dioxo-2,3-dihydro-1H-inden-5-yl]oxy}-1,3-dioxo-2,3-dihydro-1H-inden-2-yl)-4-oxobutyl]carbamate] | – | – | – | 29 | 59 | – |
| CC(C)(C)OC(=O)N1CCC[C@H]1C(=O)C1C(=O)c2ccc(-c3ccc4c(c3)C(=O)C(C(=O)[C@@H]3CCCN3C(=O)OC(C)(C)C)C4=O)cc2C1=O (stereo partly drawn) [Example 209, tert-butyl (2S)-2-{2′-[(2S)-1-[(tert-butoxy)carbonyl]pyrrolidine-2-carbonyl]-1,1′,3,3′-tetraoxo-1H,1′H,2H,2′H,3H,3′H-[5,5′-biindene]-2-carbonyl}pyrrolidine-1-carboxylate] | 75 | 96 | 4200 | – | – | – |
| CC(C(=O)C1C(=O)c2ccc(S(=O)(=O)c3ccc4c(c3)C(=O)C(C(=O)C(C)c3ccc(F)cc3)C4=O)cc2C1=O)c1ccc(F)cc1 (stereo not shown) [Example 243, 2-[2-(4-fluorophenyl)propanoyl]-5-({2-[2-(4-fluorophenyl)propanoyl]-1,3-dioxo-2,3-dihydro-1H-inden-5-yl}sulfonyl)-2,3-dihydro-1H-indene-1,3-dione] | – | – | – | 19 | 21 | – |
| O=C1c2ccc(S(=O)(=O)c3ccc4c(c3)C(=O)C(C(=O)C3CCCCC3)C4=O)cc2C(=O)C1C(=O)C1CCCCC1 (stereo not shown) [Example 288, 2-cyclohexanecarbonyl-5-[(2-cyclohexanecarbonyl-1,3-dioxo-2,3-dihydro-1H-inden-5-yl)sulfonyl]-2,3-dihydro-1H-indene-1,3-dione] | – | – | 3000 | 10 | 15 | – |
| CC(C)CCCC(=O)C1C(=O)c2ccc(C(=O)c3ccc4c(c3)C(=O)C(C(=O)CCCC(C)C)C4=O)cc2C1=O (stereo not shown) [Example 189, 2-(5-methylhexanoyl)-5-[2-(5-methylhexanoyl)-1,3-dioxo-2,3-dihydro-1H-indene-5-carbonyl]-2,3-dihydro-1H-indene-1,3-dione] | 62 | 71 | – | – | – | – |
| CC(C)(C)OC(=O)NCCC(=O)C1C(=O)c2ccc(Oc3ccc4c(c3)C(=O)C(C(=O)CCNC(=O)OC(C)(C)C)C4=O)cc2C1=O (stereo not shown) [Example 267, tert-butyl N-[3-(5-{[2-(3-{[(tert-butoxy)carbonyl]amino}propanoyl)-1,3-dioxo-2,3-dihydro-1H-inden-5-yl]oxy}-1,3-dioxo-2,3-dihydro-1H-inden-2-yl)-3-oxopropyl]carbamate] | – | 100 | – | – | – | – |
| CC(C)(C)OC(=O)N1CC[C@H]1C(=O)C1C(=O)c2ccc(C(=O)c3ccc4c(c3)C(=O)C(C(=O)[C@@H]3CCN3C(=O)OC(C)(C)C)C4=O)cc2C1=O (stereo partly drawn) [Example 115, tert-butyl (2S)-2-(5-{2-[(2S)-1-[(tert-butoxy)carbonyl]azetidine-2-carbonyl]-1,3-dioxo-2,3-dihydro-1H-indene-5-carbonyl}-1,3-dioxo-2,3-dihydro-1H-indene-2-carbonyl)azetidine-1-carboxylate] | – | – | 3300 | – | – | – |
| CC(C)(C)OC(=O)N1CSC[C@H]1C(=O)C1C(=O)c2ccc(C(=O)c3ccc4c(c3)C(=O)C(C(=O)[C@@H]3CSCN3C(=O)OC(C)(C)C)C4=O)cc2C1=O (stereo partly drawn) [Example 129, tert-butyl (4R)-4-(5-{2-[(4R)-3-[(tert-butoxy)carbonyl]-1,3-thiazolidine-4-carbonyl]-1,3-dioxo-2,3-dihydro-1H-indene-5-carbonyl}-1,3-dioxo-2,3-dihydro-1H-indene-2-carbonyl)-1,3-thiazolidine-3-carboxylate] | – | – | ~2000 | – | – | – |

— patent US20250281424A1 (New York Blood Center, Inc, priority 2020, published 2025)
